Reference: patent US20240182465A1 (GENFLEET THERAPEUTICS (SHANGHAI) INC., priority 2021, published 2024)
Structures can show the parent of a compound that is named as a salt.

Key:
[1] = biological target: T1, HPK1 (Homo sapiens, UniProt Q92918); test: HPK1 kinase activity assay (ADP-Glo); settings: HPK1 Kinase activity IC50 (nM), 1 nM HPK1, 10 μM ATP, 0.1 μg/μL MBP
T1 sequence (Q92918 1-346 limits assumed): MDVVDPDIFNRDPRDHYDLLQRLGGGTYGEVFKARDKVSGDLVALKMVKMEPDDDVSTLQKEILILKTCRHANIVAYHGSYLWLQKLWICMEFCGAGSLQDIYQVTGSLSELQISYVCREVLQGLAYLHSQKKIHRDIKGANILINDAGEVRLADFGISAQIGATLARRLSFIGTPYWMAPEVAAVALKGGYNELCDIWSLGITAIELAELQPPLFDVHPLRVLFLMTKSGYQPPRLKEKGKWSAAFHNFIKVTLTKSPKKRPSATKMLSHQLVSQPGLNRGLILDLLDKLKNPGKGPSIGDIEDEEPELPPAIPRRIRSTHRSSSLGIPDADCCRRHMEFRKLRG

[2] = biological target: HPK1 (Homo sapiens, UniProt Q92918); test: SLP76 phosphorylation assay (intracellular HPK1 inhibitory activity, p-SLP76 Ser376 sandwich ELISA); settings: p-SLP76 IC50(nM), Jurkat, Clone E6-1 cells; 1 h compound pre-incubation, anti-CD3 beads stimulation 20 min; SLP76 phosphorylation at S376
Target sequence in this assay (Q92918 whole entry): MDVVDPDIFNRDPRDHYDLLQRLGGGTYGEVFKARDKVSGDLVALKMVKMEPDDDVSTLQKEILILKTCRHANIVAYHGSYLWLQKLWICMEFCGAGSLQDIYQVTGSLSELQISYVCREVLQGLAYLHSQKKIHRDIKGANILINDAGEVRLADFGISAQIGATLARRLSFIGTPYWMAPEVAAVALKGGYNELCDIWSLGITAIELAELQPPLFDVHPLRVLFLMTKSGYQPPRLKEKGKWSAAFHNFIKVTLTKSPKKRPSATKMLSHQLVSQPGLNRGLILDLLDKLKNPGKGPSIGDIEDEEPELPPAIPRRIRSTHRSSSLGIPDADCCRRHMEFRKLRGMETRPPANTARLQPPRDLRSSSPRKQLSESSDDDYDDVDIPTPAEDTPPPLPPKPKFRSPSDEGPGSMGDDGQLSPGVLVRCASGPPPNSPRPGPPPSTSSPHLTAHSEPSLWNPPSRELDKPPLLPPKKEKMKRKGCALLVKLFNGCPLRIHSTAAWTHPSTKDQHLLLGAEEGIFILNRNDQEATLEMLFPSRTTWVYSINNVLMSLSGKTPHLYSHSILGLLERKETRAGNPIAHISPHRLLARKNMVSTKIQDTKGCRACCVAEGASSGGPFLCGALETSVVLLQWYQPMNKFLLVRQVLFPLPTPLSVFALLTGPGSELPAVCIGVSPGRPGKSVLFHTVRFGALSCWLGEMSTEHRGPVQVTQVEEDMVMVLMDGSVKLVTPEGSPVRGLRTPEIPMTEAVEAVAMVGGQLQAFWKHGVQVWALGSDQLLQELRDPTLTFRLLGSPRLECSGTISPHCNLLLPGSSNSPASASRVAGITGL

SMILES	IC50 [1] [nM]	IC50 [2] [nM]
Nc1ncc(-c2cc3c(c([C@@H]4CCCN4)c2)COCC3)cc1-c1cn[nH]c1 (single isomer, unassigned) [Compound Z93-2]	0.71	235
Cc1c[nH]c2ncc(-c3cc4c(c([C@@H]5CCCN5)c3)CN(C(=O)C3CCCCC3)CC4)cc12 [Compound Z125]	1.43	301
Cc1ccc(-c2c[nH]c3ncc(-c4cc5c(c([C@@H]6CCCN6)c4)COCC5)cc23)cn1 [Compound Z212, (S)-3-(6-methylpyridin-3-yl)-5-(8-(pyrrolidin-2-yl)isochroman-6-yl)-1H-pyrrolo[2,3-b]pyridine]	3.76	909
Cc1nn(C2CC2)cc1C(=O)N1CCc2cc(-c3cnc4[nH]cc(C)c4c3)cc([C@@H]3CCCN3)c2C1 [Compound Z341]	1.09	492
Cc1c[nH]c2ncc(-c3cc4c(c([C@@H]5CCCN5)c3)CN(CC(F)(F)F)CC4)cc12 [Compound Z131, (S)-6-(3-methyl-1H-pyrrolo[2,3-b]pyridin-5-yl)-8-(pyrrolidin-2-yl)-2-(2,2,2-trifluoroethyl)-1,2,3,4-tetrahydroisoquinoline]	7.54	664
Cc1c[nH]c2ncc(-c3cc4c(c([C@@H]5CCCN5)c3)CN(C(=O)c3ccccc3)CC4)cc12 [Compound Z123]	1.35	343
CCN1Cc2c(cc(-c3cnc4[nH]cc(C)c4c3)cc2[C@@H]2CCCN2)C1=O [Compound Z236, (S)-2-ethyl-6-(3-methyl-1H-pyrrolo[2,3-b]pyridin-5-yl)-4-(pyrrolidin-2-yl)isoindolin-1-one]	29.6	3810
CCNC(=O)N1CCc2cc(-c3cnc4[nH]cc(C(C)C)c4c3)cc([C@@H]3COCCN3)c2C1 [Compound Z429]	0.41	159
Cc1c[nH]c2ncc(-c3cc4c(c([C@@H]5CCCN5)c3)COC4)cc12 [Compound Z151-1, (S)-3-methyl-5-(7-(pyrrolidin-2-yl)-1,3-dihydroisobenzofuran-5-yl)-1H-pyrrolo[2,3-b]pyridine]	2.52	739
CC(=O)N1CCc2cc(-c3cnc4[nH]cc(C)c4c3)cc([C@@H]3CCCN3)c2C1 (single isomer, unassigned) [Compound Z98-2]	0.5	152
Cc1c[nH]c2ncc(-c3cc4c(c([C@@H]5CCCN5)c3)CN(C(=O)C(C)(C)O)CC4)cc12 [Compound Z216, (S)-2-hydroxy-2-methyl-1-(6-(3-methyl-11H-pyrrolo[2,3-b]pyridin-5-yl)-8-(pyrrolidin-2-yl)-3,4-dihydroisoquinolin-2(1H)-yl)propan-1-one]	0.41	108
Cc1c[nH]c2ncc(-c3cc4c(c([C@@H]5CCCN5)c3)CN(C(=O)c3ccccn3)CC4)cc12 [Compound Z211, (S)-(6-(3-methyl-1H-pyrrolo[2,3-b]pyridin-5-yl)-8-(pyrrolidin-2-yl)-3,4-dihydroisoquinolin-2(1H)-yl) (pyridin-2-yl)methanone]	1.7	463
C[C@@H](C#N)c1c[nH]c2ncc(-c3cc4c(c([C@@H]5CCCN5)c3)COCC4)cc12 (single isomer, unassigned) [Compound Z104-2]	0.74	197
Cc1c[nH]c2ncc(-c3cc4c(c([C@@H]5CCCN5)c3)COCC4)cc12 (single isomer, unassigned) [Compound Z97-2]	0.67	164
CCN(CC)Cc1cc(-c2cnc3[nH]cc(C)c3c2)cc2c1COCC2 [Compound Z110, N-ethyl-N-((6-(3-methyl-1H-pyrrolo[2,3-b]pyridin-5-yl)isochroman-8-yl)methyl)ethanamine]	26.9	2840
Cc1c[nH]c2ncc(-c3cc4c(c([C@@H]5CCCN5)c3)CN(C(=O)c3cnn(C)c3)C4)cc12 [Compound Z368, (S)-(1-methyl-1H-pyrazol-4-yl)(6-(3-methyl-1H-pyrrolo[2,3-b]pyridin-5-yl)-4-(pyrrolidin-2-yl)isoindolin-2-yl)methanone hydrochloride]	1.41	417
Cc1c[nH]c2ncc(-c3cc4c(c([C@@H]5CCCN5)c3)CCN(C(=O)CC3CCOCC3)C4)cc12 [Compound Z311, 1-[7-(3-methyl-1H-pyrrolo[2,3-b]pyridin-5-yl)-5-[(2S)-tetrahydro-1H-pyrrol-2-yl]-1,2,3,4-tetrahydroisoquinolin-2-yl]-2-(3,4,5,6-tetrahydro-2H-pyran-4-yl)ethan-1-one]	0.56	146
Cc1c[nH]c2ncc(-c3cc4c(c(CNCC5CC5)c3)COCC4)cc12 [Compound Z112, 1-cyclopropyl-N-((6-(3-methyl-11H-pyrrolo[2,3-b]pyridin-5-yl)isochroman-8-yl)methyl)methanamine]	3.55	305
Cc1c[nH]c2ncc(-c3cc4c(c([C@@H]5CCCN5)c3)CN(C(=O)Nc3nccs3)C4)cc12 [Compound Z386, (S)-6-(3-methyl-1H-pyrrolo[2,3-b]pyridin-5-yl)-4-(pyrrolidin-2-yl)-N-(thiazol-2-yl)isoindoline-2-carboxamide]	2.74	632
